Data reported in ChEMBL document CHEMBL3045376, “Pharmacophore modeling and 3D QSAR analysis of isothiazolidinedione derivatives as PTP1B inhibitors” (Med Chem Res, 2013).

Target: T1, Tyrosine-protein phosphatase non-receptor type 1 (Homo sapiens, UniProt P18031)
T1 sequence (P18031 whole entry): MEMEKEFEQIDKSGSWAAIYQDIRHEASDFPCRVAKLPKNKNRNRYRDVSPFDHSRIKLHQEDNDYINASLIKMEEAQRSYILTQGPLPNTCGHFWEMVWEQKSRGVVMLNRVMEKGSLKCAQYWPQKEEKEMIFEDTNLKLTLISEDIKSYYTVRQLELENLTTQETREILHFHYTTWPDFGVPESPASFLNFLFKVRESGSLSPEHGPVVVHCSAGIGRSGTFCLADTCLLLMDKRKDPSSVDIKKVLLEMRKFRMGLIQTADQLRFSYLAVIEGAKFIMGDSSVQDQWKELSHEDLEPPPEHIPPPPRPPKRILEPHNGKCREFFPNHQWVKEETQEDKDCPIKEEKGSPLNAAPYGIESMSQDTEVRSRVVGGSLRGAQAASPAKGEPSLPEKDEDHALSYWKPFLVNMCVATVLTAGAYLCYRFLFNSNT
Assay: Inhibition of Homo sapiens (human) PTP1B expressed in Escherichia coli using PNPP as substrate

SMILES | IC50
NC(=O)[C@H](Cc1ccc(C2=CC(=O)NS2(=O)=O)cc1)NC(=O)[C@H](Cc1ccccc1)NC(=O)Cc1ccc(C(F)(F)F)cc1 | 1.4 µM
CCCCCNC(=O)[C@H](Cc1ccc(C2=CS(=O)(=O)NC2=O)cc1)NC(=O)[C@H](Cc1ccccc1)NC(=O)Cc1ccc(OC)cc1 | 6 µM
CCCCCNC(=O)[C@H](Cc1ccc(N2CC(=O)NS2(=O)=O)cc1)NC(=O)[C@H](Cc1ccccc1)NC(=O)Cc1ccc(OC)cc1 | 1.5 µM
CCCCCNC(=O)[C@H](Cc1ccc(C2=CC(=O)NS2(=O)=O)cc1)NC(=O)[C@H](Cc1ccccc1)NC(=O)Cc1ccc(OC)cc1 | 1.2 µM
CC(C)(C)OC(=O)N[C@@H](Cc1ccc(C2CC(=O)NS2(=O)=O)cc1)C(N)=O (stereo partly specified) | 70 µM
CC(=O)N[C@@H](Cc1ccc(C2CC(=O)NS2(=O)=O)cc1)C(N)=O (stereo partly specified) | 100 µM
NC(=O)[C@@H](N)Cc1ccc(C2CC(=O)NS2(=O)=O)cc1 (stereo partly specified) | 100 µM
NC(=O)[C@H](Cc1ccc(C2CC(=O)NS2(=O)=O)cc1)NC(=O)[C@H](Cc1ccccc1)NC(=O)CCc1ccccc1 (stereo partly specified) | 0.34 µM
NC(=O)[C@H](Cc1ccc(C2CC(=O)NS2(=O)=O)cc1)NC(=O)[C@H](Cc1ccccc1)NC(=O)Cc1ccc(C(F)(F)F)cc1 (stereo partly specified) | 0.17 µM
COc1ccc(CC(=O)N[C@@H](Cc2ccccc2)C(=O)N[C@@H](Cc2ccc(C3CC(=O)NS3(=O)=O)cc2)C(N)=O)cc1 (stereo partly specified) | 0.17 µM
NC(=O)[C@H](Cc1ccc(C2CC(=O)NS2(=O)=O)cc1)NC(=O)[C@H](Cc1ccccc1)NC(=O)Cc1ccc(O)cc1 (stereo partly specified) | 0.17 µM
NC(=O)[C@H](Cc1ccc(C2CC(=O)NS2(=O)=O)cc1)NC(=O)[C@H](Cc1ccccc1)NC(=O)Cc1ccccc1 (stereo partly specified) | 0.18 µM
CC(=O)N[C@@H](Cc1ccccc1)C(=O)N[C@@H](Cc1ccc(C2CC(=O)NS2(=O)=O)cc1)C(N)=O (stereo partly specified) | 0.661 µM
NC(=O)[C@H](Cc1ccc(C2CC(=O)NS2(=O)=O)cc1)NC(=O)[C@@H](N)Cc1ccccc1 (stereo partly specified) | 100 µM
NC(=O)[C@H](Cc1ccc(C2=CC(=O)NS2(=O)=O)cc1)NC(=O)[C@H](Cc1ccccc1)NC(=O)CCc1ccccc1 | 2.7 µM
COc1ccc(CC(=O)N[C@@H](Cc2ccccc2)C(=O)N[C@@H](Cc2ccc(C3=CC(=O)NS3(=O)=O)cc2)C(N)=O)cc1 | 1.6 µM
NC(=O)[C@H](Cc1ccc(C2=CC(=O)NS2(=O)=O)cc1)NC(=O)[C@H](Cc1ccccc1)NC(=O)Cc1ccc(O)cc1 | 0.791 µM
NC(=O)[C@H](Cc1ccc(C2=CC(=O)NS2(=O)=O)cc1)NC(=O)[C@H](Cc1ccccc1)NC(=O)c1ccccc1 | 1.8 µM
NC(=O)[C@H](Cc1ccc(C2=CC(=O)NS2(=O)=O)cc1)NC(=O)[C@@H](N)Cc1ccccc1 | 100 µM
NC(=O)[C@H](Cc1ccc(C2=CC(=O)NS2(=O)=O)cc1)NC(=O)[C@H](Cc1ccccc1)NC(=O)Cc1ccccc1 | 1 µM
CC(=O)N[C@@H](Cc1ccccc1)C(=O)N[C@@H](Cc1ccc([C@@H]2CC(=O)NS2(=O)=O)cc1)C(N)=O | 0.18 µM
